The target of experiment [1] is T1, thrombin (Homo sapiens, UniProt P00734). The following applies: cited from earlier work.
Experiment [2] concerns the target T1, thrombin. Nature of the experiment: in vitro inhibition of thrombin amidase activity (fluorogenic substrate Tos-Gly-Pro-Arg-(7-amino-4-methylcoumarin)). Format: biochemical. Details: with 10 μL of human thrombin solution. The following applies: for inhibition at 10 µM: peptide concentration of 10 μM. The procedure: (§1) The values of the inhibition constant Ki were obtained from assays, in which thrombin hydrolyzes the fluorogenic substrate Tos-Gly-Pro-Arg-(7-amino-4-methylcoumarin). The assays were performed in 30 μL of assay buffer (0.05 M Tris, 0.1 M NaCl, 0.1% PEG 8000, pH 7.6) with 10 μL of human thrombin solution (10^−5 U/μL in assay buffer) and 140 μL of a solution of the fluorogenic substrate in assay buffer at a concentration v of 30 μM. Solutions of the test compound (10 μL) were added at various concentrations. The rates of substrate hydrolysis were measured by monitoring the reactions of 7-amino-4-methylcoumarin release at 460 nm with use of AMC. The reaction reached a steady state within 3 minutes after thrombin was combined with the substrate and an inhibitor. The kinetic data of the competitive inhibition (Km, Vmax, and Ki) were analyzed with the aid of the Hanes plot (A/V vs. A at various i values).
as §1, with “concentration” for “concentration v”, “using” for “with the aid of”, “values for A; here, A is the substrate concentration and V the reaction rate).” for “i values).”
as §1, with “conducted” for “performed”, “concentration” for “concentration v”, “using” for “with the aid of”, “values for A; here, A is the substrate concentration and V the reaction rate).” for “i values).”

Where [3] appears, read: peptide concentration of 1 μM, 1 µM.
Setting [4] is: peptide concentration of 250 nM.

Non-standard residues stand in square brackets, D forms with d. Residues, ends and D or L forms follow the SMILES beside them. Cha = N[CH](CC1CCCCC1)C(=O)O; Nle = CCCC[CH](N)C(=O)O

Turning to H-D-Phe-Pro-Arg-H, on thrombin [1], the Ki is 0.07 µM.
Take “N-Acetyl-D-Gln-D-His-L-Cha-D-Pro-D-Tyr-L-Arg amide [Example 25]”: on thrombin [2] (peptide concentration of 1 μM), the “Thrombin inhibition (thrombin amidase activity)” value (shortened to “Thrombin inhibition”) came out at 59%.
Still for that read-out and setting: next, “N-Acetyl-L-Trp-L-Cha-D-Pro-D-Tyr-L-Arg amide [Example 33]”: 63%.
Regarding “N-Acetyl-L-Ser-L-Ser-L-Cha-D-Pro-D-Tyr-L-Arg amide [Example 46]”, on thrombin [2] (setting [3]), the “Thrombin inhibition” value is on record as 40%.
With “N-Acetyl-L-Nle-D-Cha-L-Aze-D-Tyr-L-Har amide [Example 84]”, the “Thrombin inhibition” value on thrombin [2] (setting [4]) was 89%.
As to “N-Acetyl-L-Ser-L-Arg-L-Cha-D-Pro-D-Tyr-L-Arg amide [Example 68]”, the “Thrombin inhibition” value on thrombin [2] (setting [3]) was determined as 51%.
In the case of “N-Acetyl-D-Val-L-Cha-D-Pro-D-Tyr-L-Arg amide [Example 65]”, the “Thrombin inhibition” value at thrombin [2] (setting [3]) stood at 45%.
In the case of “N-Acetyl-L-Phg-D-Cha-L-Aze-D-Tyr-L-Har amide [Example 83]”, the “Thrombin inhibition” value at thrombin [2] (setting [4]) stood at 95%.
Take “N-Acetyl-D-Tyr-L-Cha-D-Pro-D-Tyr-L-Arg amide [Example 52]”: the “Thrombin inhibition” value at thrombin [2] (setting [3]) was 47%.
Same read-out and setting: as for “N-Acetyl-L-Ser-L-Ser-L-Cha-D-Pro-D-Tyr-L-Arg amide [Example 64]”, the figure is 40%; as for “N-Acetyl-D-Val-L-Cha-D-Pro-D-Tyr-L-Arg amide [Example 32]”, 45%.
Same read-out and setting: as for “N-Acetyl-L-Ser-L-Arg-L-Cha-D-Pro-D-Tyr-L-Arg amide [Example 50]”, the figure is 51%.
Turning to “N-Acetyl-L-Trp-D-Cha-L-Aze-D-Tyr-L-Har amide [Example 75]”, at thrombin [2] (setting [4]), the “Thrombin inhibition” value amounted to 76%.
`CCCCC(NC(=O)C(CC1CCCCC1)NC(=O)C(CCCNC(=N)N)NC(C)=O)C(=O)NC(CC1CCCCC1)C(N)=O` [Example 7, N-Acetyl-L-Arg-L-Cha-L-Nle-L-Cha amide] (Ac-R[Cha][Nle][Cha]-NH2; configuration not given here) came in with an inhibition at 10 µM on thrombin [2] of 60%.
Regarding “N-Acetyl-D-Val-D-His-L-Cha-D-Pro-D-Tyr-L-Arg amide [Example 27]”, on thrombin [2] (peptide concentration of 1 μM), the “Thrombin inhibition” value stood at 51%.
On to “N-Acetyl-L-Dcp-D-Cha-L-Aze-D-Tyr-L-Har amide [Example 78]”, for which the “Thrombin inhibition” value at thrombin [2] (setting [4]) is listed as 75%.
With “N-Acetyl-L-Ala-D-Cha-L-Aze-D-Tyr-L-Arg amide [Example 55]”, the “Thrombin inhibition” value on thrombin [2] (peptide concentration of 1 μM) worked out at 63%.
For “N-Acetyl-D-Lys-L-Nle-L-Cha-D-Pro-D-Tyr-L-Arg amide [Example 20]”, the “Thrombin inhibition” value on thrombin [2] (setting [3]) is reported as 44%.
Take “N-Acetyl-L-Ser-L-Ser-L-Cha-D-Pro-D-Tyr-L-Arg amide [Example 13]”: the “Thrombin inhibition” value at thrombin [2] (setting [3]) amounted to 49%.
Compound `CC(=O)NC(CCCNC(=N)N)C(=O)NC(CC1CCCCC1)C(=O)NC(CC1CCCCC1)C(=O)NC(CC1CCCCC1)C(=O)NC(CCC(=O)O)C(N)=O` [Example 4, N-Acetyl-L-Arg-L-Cha-L-Cha-L-Cha-D-Glu amide] (Ac-R[Cha][Cha][Cha]E-NH2; configuration not given here) yielded an inhibition at 10 µM against thrombin [2] of 78%.
In the case of “N-Acetyl-L-Tyr-D-Pro-L-Cha-D-Pro-D-Tyr-L-Arg amide [Example 39]”, at thrombin [2] (peptide concentration of 1 μM), the “Thrombin inhibition” value stood at 44%.
For “N-Acetyl-L-Ile-L-Cha-D-Pro-D-Tyr-L-Arg amide [Example 11]”, the “Thrombin inhibition” value at thrombin [2] (peptide concentration of 1 μM) is given as 48%.

As usually defined, the Ki is a dissociation constant, usually derived from enzyme kinetics or from competition with a known ligand. By inhibition is commonly meant the relative decrease from the control value, in per cent.

The record behind these values is patent US7081447B2, “Organic compounds with biological activity as thrombin inhibitors and use thereof” (Novel Science International GmbH, priority 2001, dated 2006).
